Results taken from patent US6369225B1, “Compounds having activity as inhibitors of cytochrome P450RAI” (Allergan Sales, Inc., priority 2000, dated 2002).

Assays:
RARβ = target: T1, RARβ (Homo sapiens, UniProt P10826); experiment: chimeric receptor transactivation assay, RARβ; type: cell-based; conditions: EC50 line of EC50/(EFFICACY)/Kd, read-out: RAR EC50 β
T1 sequence (P10826 183-417 limits assumed): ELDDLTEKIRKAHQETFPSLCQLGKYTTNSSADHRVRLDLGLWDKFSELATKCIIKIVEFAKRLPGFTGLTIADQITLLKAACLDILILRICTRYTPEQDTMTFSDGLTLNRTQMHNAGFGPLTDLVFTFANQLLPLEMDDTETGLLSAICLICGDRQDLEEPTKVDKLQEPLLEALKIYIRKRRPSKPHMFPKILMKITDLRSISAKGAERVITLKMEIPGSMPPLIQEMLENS
Text: (§1) Assays described below measure the ability of a compound to bind to, and/or activate various retinoid receptor subtypes. When in these assays a compound binds to a given receptor subtype and activates the transcription of a reporter gene through that subtype, then the compound is considered an agonist of that receptor subtype. […] In the below described assays the ability of the compounds to bind to RARα, RARβ, RARγ, RXRα, RXRβ and RXRγ receptors, and the ability or inability of the compounds to activate transcription of a reporter gene through these receptor subtypes can be tested.
(§2) As far as specific assays are concerned, a chimeric receptor transactivation assay which tests for agonist-like activity in the RARα, RARβ, AND RARγ, receptor subtypes, and which is based on work published by Feigner P. L. and Holm M. (1989) Focus, 112 is described in detail in U.S. Pat. No. 5,455,265. The specification of U.S. Pat. No. 5,455,265 is hereby expressly incorporated by reference. The numeric results obtained with several preferred compounds of this invention in this assay are shown below in Table 1.

RARγ = target: T2, RARγ (Homo sapiens, UniProt P13631); experiment: chimeric receptor transactivation assay, RARγ; type: cell-based; conditions: EC50 line of EC50/(EFFICACY)/Kd, read-out: RAR EC50 γ
T2 sequence (P13631 185-419 limits assumed): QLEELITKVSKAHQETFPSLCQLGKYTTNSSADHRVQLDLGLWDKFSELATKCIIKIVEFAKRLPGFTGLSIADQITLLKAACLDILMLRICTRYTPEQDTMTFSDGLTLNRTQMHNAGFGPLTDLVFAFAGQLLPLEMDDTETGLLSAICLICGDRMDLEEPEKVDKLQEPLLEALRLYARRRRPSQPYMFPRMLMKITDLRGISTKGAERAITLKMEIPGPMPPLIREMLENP
Text: as §1, §2

RARα = target: T3, RARα (Homo sapiens, UniProt P10276); experiment: chimeric receptor transactivation assay, RARα; type: cell-based; conditions: EC50 line of EC50/(EFFICACY)/Kd, read-out: RAR EC50 α
T3 sequence (P10276 183-462 limits assumed): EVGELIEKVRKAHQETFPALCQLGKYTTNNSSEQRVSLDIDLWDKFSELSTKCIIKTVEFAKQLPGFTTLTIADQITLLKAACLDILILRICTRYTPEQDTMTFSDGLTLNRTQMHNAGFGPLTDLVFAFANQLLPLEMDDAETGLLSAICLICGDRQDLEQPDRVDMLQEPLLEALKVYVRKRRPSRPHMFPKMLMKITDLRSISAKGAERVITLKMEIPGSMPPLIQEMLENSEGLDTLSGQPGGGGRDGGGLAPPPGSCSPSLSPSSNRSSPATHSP
Text: as §1, §2

P450RAI-1 = target: T4, P450RAI-1 (Homo sapiens, UniProt O43174); experiment: P450RAI-1 cell-based inhibitor assay; conditions: P450RAI-1 stably transfected HeLa cells, [3H]-RA metabolism, 3 hours at 37° C.; read-out: P450RAI INHIBITION DATA INTACT HELA IC50
T4 construct: expressed in transfected cells; host or cells: HeLa cells, stably transfected, hygromycin selection
T4 sequence (O43174 1-497): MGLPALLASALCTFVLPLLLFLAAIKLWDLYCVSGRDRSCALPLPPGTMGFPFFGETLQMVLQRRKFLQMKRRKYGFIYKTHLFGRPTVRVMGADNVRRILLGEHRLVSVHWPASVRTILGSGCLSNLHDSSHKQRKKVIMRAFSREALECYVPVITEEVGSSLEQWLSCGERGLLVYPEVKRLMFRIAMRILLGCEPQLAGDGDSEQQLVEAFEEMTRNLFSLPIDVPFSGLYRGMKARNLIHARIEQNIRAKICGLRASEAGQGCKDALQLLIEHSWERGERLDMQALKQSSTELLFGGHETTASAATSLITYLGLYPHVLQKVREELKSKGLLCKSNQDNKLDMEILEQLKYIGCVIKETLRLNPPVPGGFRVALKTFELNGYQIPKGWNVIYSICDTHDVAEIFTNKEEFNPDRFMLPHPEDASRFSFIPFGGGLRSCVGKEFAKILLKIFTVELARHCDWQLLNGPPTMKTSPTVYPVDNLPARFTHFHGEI
Summary of the method: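 HeLa cells stably expressing the enzyme (5×10^5/well) incubated 3 h at 37 °C with 0.05 μCi [3H]-all-trans-RA and compound at 10, 1 or 0.1 μM in triplicate. Water-soluble radioactive metabolites counted by scintillation; IC50 derived manually from log-transformed data.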

| Compound | EC50 (RARβ) | EC50 (RARγ) | EC50 (RARα) | IC50 (P450RAI-1) |
| --- | --- | --- | --- | --- |
| CC1(C)CCC(=O)c2ccc(C#Cc3ccc(C(=O)O)c(F)c3)cc21 [Compound 10, 2-Fluoro-4-(8,8-dimethyl-5-oxo-5,6,7,8-tetrahydro-naphthalen-2yl-ethynyl)benzoic Acid] | 0.3 nM | 6 nM | 57 nM | 700 nM |
| CN(C1CC1)C1CCC(C)(C)c2cc(C#Cc3ccc(C(=O)O)c(F)c3)ccc21 (stereo not shown) [Compound 13, 4-[5-(Cyclopropyl-methyl-amino)-8,8-dimethyl-5,6,7,8-tetrahydro-naphthalene-2-yl-ethynyl]-2-fluoro Benzoic Acid] | 3.2 nM | 116 nM |  | 3100 nM |
